One data set relates to LNCaP cells. Briefly: Cell viability (AlamarBlue), LNCaP prostate cancer cells. The conditions noted are these: 72 hours of treatment. It is filed as cell-based, human. Details: key to EC50 (μM) in LNCaP cells: Inactive: less than 50% inhibition at the highest concentration tested at 50 μM. The gist of the method:
(§1)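 Cells were plated, and compounds were added at increasing concentrations after 24 h. Viability was measured by AlamarBlue fluorescence after 72 h of treatment and normalized to untreated controls to fit EC50.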
(In general: The colour change of resazurin is a common sign of viable cells or microbes.)

Another data set concerns 22RV1 cells. Briefly: Cell viability (AlamarBlue), 22RV1 prostate cancer cells. Details: key to EC50 (μM) in 22RV1 cells: Inactive: less than 50% inhibition at the highest concentration tested at 50 μM. It is filed as cell-based, human. The note with it: 72 hours of treatment. The gist of the method:
as §1

For another data set, the system named is U87 cells. As to the kind of experiment: Cell viability (AlamarBlue), U87 glioblastoma cells. The format is cell-based, human. Details: key to EC50 (μM) in U87 cells: Inactive: less than 50% inhibition at the highest concentration tested at 50 μM. The conditions noted are these: 72 hours of treatment. The gist of the method:
as §1

In another data set the test system is RWPE1 cells. Briefly: Cell viability (AlamarBlue), RWPE1 normal prostate cells. The format is cell-based, human. The arrangement: key to EC50 (μM) in RWPE1 cells: Inactive: less than 50% inhibition at the highest concentration tested at 50 μM. The note with it: normal prostate cell line; for EC50 (μM) in RWPE1 cells: 72 hours of treatment; for EC50: Homo sapiens, RWPE-1, 72 hours of treatment. The procedure: (§2) In another exemplary method, half maximal effective concentration (EC50) was determined for some compounds and their isomers as disclosed herein in a variety of human cancer cell lines. In brief, cells from two prostate cancer cell lines (LNCaP, 22RV1), one glioblastoma cell line (U87), one breast cancer cell line (MCF7), a glioma cell line (LN18), a normal prostate cell line (RWPE1), and a glioblastoma cell line (T98G) were plated in a multi-well plate. After 24 hours, one of the compounds herein was added to the well at increasing concentrations. After 72 hours of treatment, cell viability was assessed using AlamrBlue® (Invitrogen) and fluorescence was read using the CLARIOstar Plus Multilabel Plate Reader (BMG Labtech). Samples were normalized to no treatment controls. EC50 values were determined using GraphPad Prism.

A short description of data set [1]: Kinetic solubility in aqueous PBS buffer (HPLC-MS). It is filed as physicochemical. The note with it: kinetic from dmso stock. The procedure:
In another exemplary method, central nervous system multiparameter optimization (CNS MPO) score and kinetic solubility of selected compounds was determined. CNS MPO score for compounds and their isomers disclosed herein were calculated using an algorithm that uses a weighted scoring function assessing 6 key physicochemical properties (clogP, clogD, MW, TPSA, HBD, and pKa) for blood-brain-barrier (BBB penetration). CNS MPO score ranged from 0 and 6.0 with scores≥4.0 used as a cut-off to select compounds that can have a high probability of accumulating in the CNS. Kinetic solubility of a compound is the maximum solubility of the fastest precipitating species of the compound. Kinetic solubility was determined by preparing a concentrated stock solution for compounds and their isomers disclosed herein in an organic solvent (DMSO), after which the solution was mixed with an aqueous PBS buffer and then filtered. Filtrate was tested to quantify the kinetic solubilty using HPLC-MS calibration curve. The CNS MPO Score and kinetic solubility of the compounds tested are provided in Table 7 where “ND” means not determined.

The next data set has as its system cancer cell. As to the kind of experiment: Cancer cell viability, cell line not stated (per-compound ranges in description). The format is cell-based. The conditions noted are these: 'In some embodiments', values worded 'about', read-out: EC50 in cancer cell viability (range stated in description). The procedure: as §2
Setting [2] is: 'In some embodiments', values worded 'about', read-out: kinetic solubility (range stated in description).

The structures appear in SMILES notation. pEC50: −log10 of the molar value. Converted amounts (≈) assume the structure as drawn. Like-named read-outs stand apart in the source and are kept apart here.

Consider `COC1CC(C(=O)NC(=O)Nc2ccc(Oc3ncc(Cl)cn3)c(C)c2)C1` (single isomer, unassigned) [Compound 20B, N-((4-((5-chloropyrimidin-2-yl)oxy)-3-methylphenyl)carbamoyl)-3-methoxycyclobutane-1-carboxamide], for which the results for the concentration giving a half-maximal response (EC50) in the data set with LNCaP cells, with 22RV1 cells and with U87 cells were 5 µM, 15.3 µM and 31.2 µM, respectively. Also, in the data set with RWPE1 cells, the “EC50 (μM) in RWPE1 cells” value was “Inactive”.

Regarding `COC1CC(C(=O)NC(=O)Nc2ccc(Oc3nccs3)c(C)c2)C1` (single isomer, unassigned) [Compound 45A, 3-methoxy-N-((3-methyl-4-(thiazol-2-yloxy)phenyl)carbamoyl)cyclobutane-1-carboxamide], the results for the half-maximal effective concentration (EC50) in the data set on LNCaP cells, in the data set with 22RV1 cells and in the data set with U87 cells were 0.9 µM, 2.8 µM and 3.7 µM, respectively. Also, in the data set with RWPE1 cells, the “EC50 (μM) in RWPE1 cells” value is given as “Inactive”.

As for `COC1CC(C(=O)NC(=O)Nc2ccc(Oc3nccs3)c(C)c2)C1` (single isomer, unassigned) [Compound 45B, 3-methoxy-N-((3-methyl-4-(thiazol-2-yloxy)phenyl)carbamoyl)cyclobutane-1-carboxamide], the EC50 is 4 µM in the data set with LNCaP cells, 14.2 µM in the data set on 22RV1 cells and 12.2 µM in the data set with U87 cells. In addition, in the data set on RWPE1 cells, the “EC50 (μM) in RWPE1 cells” value is listed as “Inactive”.

On to `COC1CCC(C(=O)NC(=O)Nc2ccc(Oc3ncco3)c(C)c2)CC1` (stereo not shown) [Compound 21, 1-(4-methoxycyclohexanecarbonyl)-3-[3-methyl-4-(1,3-oxazol-2-yloxy)phenyl]urea], for which the EC50 in the data set on LNCaP cells (Homo sapiens, LNCaP, 72 h) is 19.7 µM; with 22RV1 cells (Homo sapiens, 22Rv1, 72 h), 24 µM; in the data set with U87 cells (Homo sapiens, U-87 MG, 72 h), 20.8 µM; with RWPE1 cells it was 33 µM.

Regarding `COC1CCC(C(=O)NC(=O)Nc2ccc(Oc3cccnn3)c(C)c2)CC1` (stereo not shown) [Compound 22, 1-(4-methoxycyclohexanecarbonyl)-3-[3-methyl-4-(pyridazin-3-yloxy)phenyl]urea], the “EC50 (μM) in LNCaP cells” value in the data set on LNCaP cells is on record as “Inactive”. The “EC50 (μM) in 22RV1 cells” value with 22RV1 cells is “Inactive”. Moreover, the “EC50 (μM) in U87 cells” value in the data set with U87 cells is listed as “Inactive”. Besides, the “EC50 (μM) in RWPE1 cells” value in the data set with RWPE1 cells was “Inactive”.

`COC1CCC(C(=O)NC(=O)Nc2ccc(Oc3ncc(Cl)cn3)cc2F)CC1` (stereo not shown) [Compound 23, 3-{4-[(5-chloropyrimidin-2-yl)oxy]-2-fluorophenyl}-1-(4-methoxycyclohexanecarbonyl)urea]: the “EC50 (μM) in LNCaP cells” value with LNCaP cells is listed as “Inactive”. Moreover, the midpoint of the response in the data set with 22RV1 cells (Homo sapiens, 22Rv1, 72 h), the EC50, lay at 30.6 µM. For the same compound, the “EC50 (μM) in U87 cells” value in the data set with U87 cells is on record as “Inactive”. For the same compound, the “EC50 (μM) in RWPE1 cells” value with RWPE1 cells was “Inactive”.

`COC1CCC(C(=O)NC(=O)Nc2ccc(Oc3ccc(Cl)cn3)cc2F)CC1` (stereo not shown) [Compound 24, 3-{4-[(5-chloropyridin-2-yl)oxy]-2-fluorophenyl}-1-(4-methoxycyclohexanecarbonyl)urea]: in the data set on LNCaP cells, the “EC50 (μM) in LNCaP cells” value was “Inactive”. In addition, in the data set on 22RV1 cells, the “EC50 (μM) in 22RV1 cells” value is “Inactive”. In addition, the “EC50 (μM) in U87 cells” value in the data set on U87 cells is listed as “Inactive”. The compound also yielded a half-maximal effective concentration (EC50) with RWPE1 cells of 31 µM.

On to `COC1CC(C(=O)NC(=O)Nc2ccc(Oc3nc4ccccc4s3)c(C)c2)C1` (stereo not shown) [Compound 56, N-((4-(benzo[d]thiazol-2-yloxy)-3-methylphenyl)carbamoyl)-3-methoxycyclobutane-1-carboxamide], for which the EC50 stood at 0.15 µM in the data set with LNCaP cells (Homo sapiens, LNCaP, 72 h); 0.35 µM in the data set on 22RV1 cells (Homo sapiens, 22Rv1, 72 h); 0.89 µM in the data set with U87 cells (Homo sapiens, U-87 MG, 72 h); 22.4 µM in the data set on RWPE1 cells. For the same compound, the solubility (kinetic) in data set [1] (DMSO stock mixed with aqueous PBS buffer, filtered, read-out: Kinetic Solubility) was determined as 1 µM (≈ 0.411 µg/mL).

Turning to `O=C(NC(=O)C1CCCCC1)Nc1ccc(Oc2ncc(Cl)cn2)c(F)c1` [Compound 70, N-((4-((5-chloropyrimidin-2-yl)oxy)-3-fluorophenyl)carbamoyl)cyclohexanecarboxamide], in the data set with LNCaP cells, the “EC50 (μM) in LNCaP cells” value is “Inactive”. The “EC50 (μM) in 22RV1 cells” value with 22RV1 cells was “Inactive”. Moreover, the “EC50 (μM) in U87 cells” value in the data set on U87 cells is listed as “Inactive”. The “EC50 (μM) in RWPE1 cells” value with RWPE1 cells is reported as “Inactive”.

Consider `COC12CC(C(=O)NC(=O)Nc3ccc(Oc4nccs4)c(C)c3)(C1)C2` [drawing 270, 3-methoxy-N-((3-methyl-4-(thiazol-2-yloxy)phenyl)carbamoyl)bicyclo[1.1.1]pentane-1-carboxamide], for which the solubility (kinetic) in data set [1] (setting [2]) fell in the range of 1.5 to 3.5 µM (≈ 0.56 to 1.31 µg/mL). For the same compound, the pEC50 in the data set with cancer cell is 7.10 to 7.40.

On to `COC12CC(C(=O)NC(=O)Nc3ccc(Oc4ccc(Cl)cn4)c(C)c3)(C1)C2` [drawing 271, N-((4-((5-chloropyridin-2-yl)oxy)-3-methylphenyl)carbamoyl)-3-methoxybicyclo[1.1.1]pentane-1-carboxamide], for which, in the data set with cancer cell, the negative logarithm of the EC50 (pEC50) was 6.80 to 8.00.

As for `COC12CC(C(=O)NC(=O)Nc3ccc(Oc4ncc(Cl)cn4)c(C)c3)(C1)C2` [drawing 272, N-((4-((5-chloropyrimidin-2-yl)oxy)-3-methylphenyl)carbamoyl)-3-methoxybicyclo[1.1.1]pentane-1-carboxamide], the solubility (kinetic) in data set [1] (setting [2]) lay within 1.5 to 3.5 µM (≈ 0.604 to 1.41 µg/mL). Also, the negative logarithm of the EC50 (pEC50) in the data set on cancer cell was 7.10 to 7.40.

Take `COC12CC(C(=O)NC(=O)Nc3ccc(Oc4ccccn4)c(C)c3)(C1)C2` [drawing 273, 3-methoxy-N-((3-methyl-4-(pyridin-2-yloxy)phenyl)carbamoyl)bicyclo[1.1.1]pentane-1-carboxamide]: the negative logarithm of the EC50 (pEC50) in the data set on cancer cell is 6.40 to 7.00.

Consider `COC12CC(C(=O)NC(=O)Nc3ccc(Oc4ncccn4)c(C)c3)(C1)C2` [drawing 274, 3-methoxy-N-((3-methyl-4-(pyrimidin-2-yloxy)phenyl)carbamoyl)bicyclo[1.1.1]pentane-1-carboxamide], for which the solubility (kinetic) in data set [1] (setting [2]) is 25 to 30 µM (≈ 9.21 to 11.1 µg/mL). Moreover, the negative logarithm of the EC50 (pEC50) in the data set with cancer cell was 5.40 to 6.30.

Turning to `COC12CC(C(=O)NC(=O)Nc3ccc(Oc4ncc(F)cn4)c(C)c3)(C1)C2` [drawing 275, N-((4-((5-fluoropyrimidin-2-yl)oxy)-3-methylphenyl)carbamoyl)-3-methoxybicyclo[1.1.1]pentane-1-carboxamide], the kinetic solubility in data set [1] (setting [2]) lay in the range of 85 to 91 µM (≈ 32.8 to 35.2 µg/mL). The pEC50 with cancer cell was 5.40 to 6.30.

Turning to `COC12CC(C(=O)NC(=O)Nc3ccc(Oc4ccc(F)cn4)c(C)c3)(C1)C2` [drawing 276, N-((4-((5-fluoropyridin-2-yl)oxy)-3-methylphenyl)carbamoyl)-3-methoxybicyclo[1.1.1]pentane-1-carboxamide], the negative logarithm of the EC50 (pEC50) in the data set with cancer cell is 6.46 to 7.30.

For `COC12CC(C(=O)NC(=O)Nc3cc(C)c(Oc4ncc(Cl)cn4)c(F)c3)(C1)C2` [drawing 277, N-((4-((5-chloropyrimidin-2-yl)oxy)-3-fluoro-5-methylphenyl)carbamoyl)-3-methoxybicyclo[1.1.1]pentane-1-carboxamide], the solubility (kinetic) in data set [1] (setting [2]) was in the range of 1.5 to 3.5 µM (≈ 0.631 to 1.47 µg/mL). The pEC50 in the data set on cancer cell was 7.19 to 7.47.

Consider `COC12CC(C(=O)NC(=O)Nc3cc(C)c(Oc4ccc(F)cn4)c(F)c3)(C1)C2` [drawing 278, N-((3-fluoro-4-((5-fluoropyridin-2-yl)oxy)-5-methylphenyl)carbamoyl)-3-methoxybicyclo[1.1.1]pentane-1-carboxamide], for which the pEC50 in the data set with cancer cell is 6.20 to 7.06.

For the compound `COC1CC(C(=O)NC(=O)Nc2ccc(C)c(Oc3nccs3)c2)C1` (stereo not shown) [drawing 279, 3-methoxy-N-((4-methyl-3-(thiazol-2-yloxy)phenyl)carbamoyl)cyclobutane-1-carboxamide], the kinetic solubility in data set [1] (setting [2]) fell in the range of 7 to 11 µM (≈ 2.53 to 3.98 µg/mL). In addition, the pEC50 with cancer cell was 7.30 to 8.00.

Turning to `COC1CC(C(=O)NC(=O)Nc2ccc(C)c(Oc3ccccn3)c2)C1` (stereo not shown) [drawing 280, 3-methoxy-N-((4-methyl-3-(pyridin-2-yloxy)phenyl)carbamoyl)cyclobutane-1-carboxamide], the solubility (kinetic) in data set [1] (setting [2]) was in the range of 10 to 14 µM (≈ 3.55 to 4.98 µg/mL). Further, in the data set on cancer cell, the negative logarithm of the EC50 (pEC50) was 8.15 to 8.70.

Regarding `COC1CC(C(=O)NC(=O)Nc2ccc(C)c(Oc3ccc(F)cn3)c2)C1` (stereo not shown) [drawing 281, N-((3-((5-fluoropyridin-2-yl)oxy)-4-methylphenyl)carbamoyl)-3-methoxycyclobutane-1-carboxamide], the kinetic solubility in data set [1] (setting [2]) lay in the range of 5 to 9 µM (≈ 1.87 to 3.36 µg/mL). In addition, the pEC50 with cancer cell is 7.52 to 8.30.

With `COC12CC(C(=O)NC(=O)Nc3ccc(C)c(Oc4ccccn4)c3)(C1)C2` [drawing 284, 3-methoxy-N-((4-methyl-3-(pyridin-2-yloxy)phenyl)carbamoyl)bicyclo[1.1.1]pentane-1-carboxamide], the negative logarithm of the EC50 (pEC50) with cancer cell was 7.15 to 7.70.

For orientation: EC50 means the midpoint of the concentration-response curve. As usually defined, the solubility (kinetic) is the concentration staying in solution when a stock, usually in DMSO, is diluted into the medium. In general, pEC50 refers to the EC50 on a negative log10 scale, so that one unit is a factor of ten.

The values above are taken from patent US12404242B2, “Compositions and methods for making and using small molecules in the treatment of cancer” (Reglagene, Inc., priority 2021, dated 2025).
